Data reported in the SangsterLogP compilation.

Assay: from Suikov, S.; Kal'nits'kii, M.; Lutsik, O.; Plyushchakova, L.; Bondarenko, A.; Bogza, S.; Popov, A. (2007). Derivatives of 1,2,4-triazolo[4,3-b]pyridazin-6-ylhydrazine as a new training set for …

logP | SMILES
0.93 | CC(=NN=c1ccc2nncn2[nH]1)c1ccncc1
1.15 | CC(=NN=c1ccc2nncn2[nH]1)c1ccccn1
1.46 | CC(=NN=c1ccc2nncn2[nH]1)c1cccc(O)c1
1.45 | CC(=NN=c1ccc2nncn2[nH]1)c1ccc(O)cc1
1.89 | CC(=NN=c1ccc2nncn2[nH]1)c1ccccc1O
1.97 | COc1cccc(C(C)=NN=c2ccc3nncn3[nH]2)c1
2.2 | CC(=NN=c1ccc2nncn2[nH]1)c1ccc(C)cc1
1.53 | COc1cc(C=NN=c2ccc3nncn3[nH]2)cc(OC)c1OC
1.94 | COc1ccccc1C(C)=NN=c1ccc2nncn2[nH]1
2.15 | CC/C(=N/Nc1ccc2nncn2n1)c1ccccc1
2.02 | CC(=NN=c1ccc2nncn2[nH]1)c1ccc(F)cc1
